Patent EP4603105A1, “PHARMACEUTICAL COMPOSITION CONTAINING CYCLIC COMPOUND HAVING SELECTIVE KRAS INHIBITORY EFFECT AGAINST HRAS AND NRAS” (CHUGAI SEIYAKU KABUSHIKI KAISHA, priority 2022, dated 2024)
*1 amine or outer side, *2 acyl side, *3 side chain or, on linkers, in order; H or OH if unused. Where a SMILES comes first, the peptide text is derived from it. Bridges are numbered along the chain shown (N, C = ends). [ ]: non-standard residue; d: D form. The star is where a group is joined. hPhe(3,5-F2-4-CF3) = N[C@@H](CCc1cc(F)c(C(F)(F)F)c(F)c1)C(=O)O; hPhe(3-Cl-4-CF3) = N[C@@H](CCc1ccc(C(F)(F)F)c(Cl)c1)C(=O)O; NPrPhe(4-CF3) = CCCN[C@@H](Cc1ccc(C(F)(F)F)cc1)C(=O)O; NEtAsp = CCN([C@@H](CC(=O)[*:3])C(=O)[*:2])[*:1]; NEtPhe(4-Me) = CCN[C@@H](Cc1ccc(C)cc1)C(=O)O; NMeAbu(4,4,4-F3) = CN[C@@H](CC(F)(F)F)C(=O)O; dαMeAlg = C[C@](CC=[*:3])(N[*:1])C(=O)[*:2]; Pip(4,4-F2) = O=C(O)[C@@H]1CC(F)(F)CCN1; NMeGly(cPent) = CN[C@H](C(=O)O)C1CCCC1; Pro(4,4-F2) = O=C(O)[C@@H]1CC(F)(F)CN1; Pro(4,4-Me2) = CC1(C)CN[C@H](C(=O)O)C1; NMeSer(allyl) = C=CCOC[C@H](NC)C(=O)O; Hyp = O=C(O)[C@@H]1C[C@@H](O)CN1; NMeD = CN[C@@H](CC(=O)O)C(=O)O; NMeL = CN[C@@H](CC(C)C)C(=O)O; Morpholide = C1CN(*)CCO1; NMeA = CN[C@@H](C)C(=O)O; Ac5c = NC1(C(=O)O)CCCC1; Aze = O=C(O)[C@@H]1CCN1; Ac4c = NC1(C(=O)O)CCC1; Sar = CNCC(=O)O

Tests used:
[1] = molecular target: HRAS wild-type protein (Homo sapiens, UniProt P01112); experiment: Binding to HRAS by surface plasmon resonance (SPR), KD and KD ratio to KRAS
Summary of the method: (§1)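 Recombinant RAS proteins bearing a biotinylated Avi tag and loaded with GDP served as the captured ligand, recaptured fresh every cycle. Binding responses were referenced to an uncoated surface and a buffer-only blank cycle. Dissociation constants were obtained by 1:1 model fitting at 30°C.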

[2] = tested on: human lung cancer strain NCI-H441; type: cell-based
Summary of the method: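 Signal came from […] measured per well once the reagent was added. Beforehand, cells were cultured at 37°C and 5% carbon dioxide on a compound series serially diluted in dimethyl sulfoxide.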

[3] = molecular target: GDP-bound NRAS wild-type protein (Homo sapiens, UniProt P01111); experiment: Binding to NRAS by surface plasmon resonance (SPR), KD and KD ratio to KRAS
Summary of the method: as §1

[4] = ratio of KD value for HRAS wild-type protein to KD value for KRAS (SPR)
[5] = ratio of KD value for GDP-bound NRAS wild-type protein to KD value for KRAS (SPR)
[6] = ratio of KD for HRAS wild-type protein to KD for KRAS
[7] = ratio of KD for GDP-bound NRAS wild-type protein to KD for KRAS
[8] = ratio of the KD value with respect to HRAS wild-type protein to the KD value with respect to KRAS
[9] = ratio of the KD value with respect to GDP-bound NRAS wild-type protein to the KD value with respect to KRAS

HRAS wild-type protein, sequence (P01112 whole entry): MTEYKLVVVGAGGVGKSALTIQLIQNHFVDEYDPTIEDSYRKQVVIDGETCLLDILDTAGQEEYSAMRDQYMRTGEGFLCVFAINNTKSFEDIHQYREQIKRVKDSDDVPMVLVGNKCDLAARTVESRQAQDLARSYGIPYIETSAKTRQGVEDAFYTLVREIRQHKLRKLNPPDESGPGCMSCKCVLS
GDP-bound NRAS wild-type protein, sequence (P01111 whole entry): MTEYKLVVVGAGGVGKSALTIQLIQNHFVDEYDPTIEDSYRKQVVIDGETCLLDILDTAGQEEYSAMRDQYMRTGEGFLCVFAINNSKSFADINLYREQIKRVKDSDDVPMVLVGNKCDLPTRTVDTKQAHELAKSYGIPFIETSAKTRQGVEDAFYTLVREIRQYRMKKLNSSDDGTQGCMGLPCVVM

SMILES	IC50 [2] [nM]	HRAS /KRAS [1, 4]	NRAS /KRAS [3, 5]	HRAS /KRAS [1, 6]	NRAS /KRAS [3, 7]	HRAS /KRAS [1, 8]	NRAS /KRAS [3, 9]
CCO[C@@H]1C[C@H]2C(=O)NC3(CCCC3)C(=O)N(C)[C@@H](C3CCCC3)C(=O)N(C)[C@H](C(=O)N3CCOCC3)CC(=O)N(C)[C@@H](CC(C)C)C(=O)N[C@@H]([C@@H](C)CC)C(=O)N(C)CC(=O)N(C)CC(=O)N(CC)[C@@H](Cc3ccc(C)cc3)C(=O)N(C)CC(=O)N[C@@H](CCc3ccc(C(F)(F)F)c(Cl)c3)C(=O)N2C1 [PP0042] ([NMeL]I[Sar][Sar][NEtPhe(4-Me)][Sar][hPhe(3-Cl-4-CF3)][Hyp](Et)[Ac5c][NMeGly(cPent)][NMeD]-Morpholide; lactam N-11)	7.2			C (A compound having a KD ratio of 0.1 or more and less than 3 is denoted as C)	C (A compound having a KD ratio of 0.1 or more and less than 3 is denoted as C)		
CCCN1C(=O)[C@@H]2CCN2C(=O)[C@H](C)N(C)C(=O)[C@H]([C@@H](C)CC)NC(=O)[C@H](CC(C)C)N(C)C(=O)C[C@@H](C(=O)N2CCOCC2)N(C)C(=O)[C@H](C2CCCC2)N(C)C(=O)C2(CCCC2)NC(=O)[C@@H]2CC(C)(C)CN2C(=O)[C@H](CCc2ccc(C(F)(F)F)c(Cl)c2)NC(=O)CN(C)C(=O)[C@@H]1Cc1ccc(C(F)(F)F)cc1 [PP0454] ([NMeL]I[NMeA][Aze][NPrPhe(4-CF3)][Sar][hPhe(3-Cl-4-CF3)][Pro(4,4-Me2)][Ac5c][NMeGly(cPent)][NMeD]-Morpholide; lactam N-11)	2.9					C (A compound having a KD ratio of 0.1 or more and less than 3 is denoted as C)	C (A compound having a KD ratio of 0.1 or more and less than 3 is denoted as C)
CCO[C@@H]1C[C@H]2C(=O)NC3(CCC3)C(=O)N(C)[C@@H](C3CCCC3)C(=O)N(C)[C@H](C(=O)N(C)C)CC(=O)N(C)[C@@H](C)C(=O)N[C@@H]([C@@H](C)CC)C(=O)N(C)CC(=O)N(C)[C@H]3CCCCN(C3=O)[C@@H](Cc3ccc(C(F)(F)F)cc3)C(=O)N(C)CC(=O)N[C@@H](CCc3cc(F)c(C(F)(F)F)c(F)c3)C(=O)N2C1 [PP0587]	5.1					C (A compound having a KD ratio of 0.1 or more and less than 3 is denoted as C)	C (A compound having a KD ratio of 0.1 or more and less than 3 is denoted as C)
CCCN1C(=O)CN(C)C(=O)CN(C)C(=O)[C@H]([C@@H](C)CC)NC(=O)[C@H](CC(C)C)N(C)C(=O)C[C@@H](C(=O)N2CCOCC2)N(C)C(=O)[C@H](C2CCCC2)N(C)C(=O)[C@@H](C)NC(=O)[C@@H]2CCCN2C(=O)[C@H](CCc2ccc(C(F)(F)F)c(Cl)c2)NC(=O)CN(C)C(=O)[C@@H]1Cc1ccc(C(F)(F)F)cc1 [PP0150] ([NMeL]I[Sar][Sar][NPrPhe(4-CF3)][Sar][hPhe(3-Cl-4-CF3)]P[dA][NMeGly(cPent)][NMeD]-Morpholide; lactam N-11)	49.1			C (A compound having a KD ratio of 0.1 or more and less than 3 is denoted as C)	B (a compound having 3 or more and less than 10 is denoted as B)		
CCCN1C(=O)CN(C)C(=O)[C@@H]2CCN2C(=O)[C@H]([C@@H](C)CC)NC(=O)[C@H](CC(C)C)N(C)C(=O)C[C@@H](C(=O)N2CCOCC2)N(C)C(=O)[C@H](C2CCCC2)N(C)C(=O)C2(CCCC2)NC(=O)[C@@H]2CC(F)(F)CCN2C(=O)[C@H](CCc2ccc(C(F)(F)F)c(Cl)c2)NC(=O)CN(C)C(=O)[C@@H]1Cc1ccc(C(F)(F)F)cc1 [PP0312] ([NMeL]I[Aze][Sar][NPrPhe(4-CF3)][Sar][hPhe(3-Cl-4-CF3)][Pip(4,4-F2)][Ac5c][NMeGly(cPent)][NMeD]-Morpholide; lactam N-11)	82.4			B (a compound having 3 or more and less than 10 is denoted as B)	B (a compound having 3 or more and less than 10 is denoted as B)		
CCCN1C(=O)CN(C)C(=O)CN(C)C(=O)[C@H]([C@@H](C)CC)NC(=O)[C@H](CC(C)C)N(C)C(=O)C[C@@H](C(=O)N(C)C)N(C)C(=O)[C@H](C2CCCC2)N(C)C(=O)C2(CCC2)NC(=O)[C@@H]2CC(F)(F)CN2C(=O)[C@H](CCc2ccc(C(F)(F)F)c(Cl)c2)NC(=O)CN(C)C(=O)[C@@H]1Cc1ccc(C(F)(F)F)cc1 [PP0414] ([NMeL]I[Sar][Sar][NPrPhe(4-CF3)][Sar][hPhe(3-Cl-4-CF3)][Pro(4,4-F2)][Ac4c][NMeGly(cPent)][NMeD]-NMe2; lactam N-11)	1.9					C (A compound having a KD ratio of 0.1 or more and less than 3 is denoted as C)	B (a compound having 3 or more and less than 10 is denoted as B)

Further lines, with some results ahead:

IC50 [2] [nM]	SMILES	HRAS /KRAS [1, 4]	NRAS /KRAS [3, 5]	HRAS /KRAS [1, 6]	NRAS /KRAS [3, 7]	HRAS /KRAS [1, 8]	NRAS /KRAS [3, 9]
2.8	CCC[C@H]1C(=O)N[C@@H]([C@@H](C)CC)C(=O)N(C)CC(=O)N(C)[C@H]2C/C=C\CCN(C2=O)[C@@H](Cc2ccc(C(F)(F)F)cc2)C(=O)N(C)CC(=O)N[C@@H](CCc2cc(F)c(C(F)(F)F)c(F)c2)C(=O)N2C[C@H](OCC)C[C@H]2C(=O)NC2(CC(C)(C)C2)C(=O)N(C)[C@@H](C2CCCC2)C(=O)N(C)[C@H](C(=O)N(C)CC)CC(=O)N1C [PP1646]	A (a compound having 10 or more and less than 20 is denoted as A)	A (a compound having 10 or more and less than 20 is denoted as A)				
447	CCCN1C(=O)CN(C)C(=O)[C@@H]2CCN2C(=O)[C@H]([C@@H](C)CC)NC(=O)[C@H](CC(C)C)N(C)C(=O)C[C@@H](C(=O)N2CCOCC2)N(C)C(=O)[C@H](CC(F)(F)F)N(C)C(=O)C2(CCCC2)NC(=O)[C@@H]2CCCN2C(=O)[C@H](CCc2cc(F)c(C(F)(F)F)c(F)c2)NC(=O)CN(C)C(=O)[C@@H]1Cc1ccc(C(F)(F)F)cc1 [PP0784] ([NMeL]I[Aze][Sar][NPrPhe(4-CF3)][Sar][hPhe(3,5-F2-4-CF3)]P[Ac5c][NMeAbu(4,4,4-F3)][NMeD]-Morpholide; lactam N-11)			B (a compound having 3 or more and less than 10 is denoted as B)	B (a compound having 3 or more and less than 10 is denoted as B)		
596	CCCN1C(=O)CN(C)C(=O)CN(C)C(=O)[C@H]([C@@H](C)CC)NC(=O)[C@@H]2COCC=CC[C@@](C)(NC(=O)[C@@H]3C[C@@H](OCC)CN3C(=O)[C@H](CCc3cc(F)c(C(F)(F)F)c(F)c3)NC(=O)CN(C)C(=O)[C@@H]1Cc1ccc(C(F)(F)F)cc1)C(=O)N(C)[C@@H](C1CCCC1)C(=O)N(C)[C@H](C(=O)N1CCOCC1)CC(=O)N2C [PP0903] ([NMeSer(allyl)]I[Sar][Sar][NPrPhe(4-CF3)][Sar][hPhe(3,5-F2-4-CF3)][Hyp](Et)[dαMeAlg][NMeGly(cPent)][NMeD]-Morpholide; staple 1-9; lactam N-11)			C (A compound having a KD ratio of 0.1 or more and less than 3 is denoted as C)	B (a compound having 3 or more and less than 10 is denoted as B)		
2.5	CCCN(C)C(=O)[C@@H]1CC(=O)N(C)[C@@H](CC)C(=O)N[C@@H]([C@@H](C)CC)C(=O)N(C)CC(=O)N(C)[C@H]2C/C=C\CCN(C2=O)[C@@H](Cc2ccc(C(F)(F)F)cc2)C(=O)N(C)CC(=O)N[C@@H](CCc2cc(F)c(C(F)(F)F)c(F)c2)C(=O)N2C[C@H](OCC)C[C@H]2C(=O)NC2(CCC2)C(=O)N(C)[C@@H](C2CCCC2)C(=O)N1C [PP1699]	A (a compound having 10 or more and less than 20 is denoted as A)	A (a compound having 10 or more and less than 20 is denoted as A)				
128	CCO[C@@H]1C[C@H]2C(=O)NC3(CCC3)C(=O)N(C)[C@@H](C3CCCC3)C(=O)N(C)[C@H](C(=O)N(C)C)CC(=O)N(C)[C@@H](CC)C(=O)N[C@@H]([C@@H](C)CC)C(=O)N3CC[C@H]3C(=O)N(C)[C@H]3CC(C)=CCN(C3=O)[C@@H](Cc3ccc(C(F)(F)F)cc3)C(=O)N(C)CC(=O)N[C@@H](CCc3cc(F)c(C(F)(F)F)c(F)c3)C(=O)N2C1 [PP1035]			C (A compound having a KD ratio of 0.1 or more and less than 3 is denoted as C)	C (A compound having a KD ratio of 0.1 or more and less than 3 is denoted as C)		
16.8	CCCN1C(=O)CN(C)C(=O)CNC(=O)[C@H]([C@@H](C)CC)NC(=O)[C@H](CC(C)C)N(C)C(=O)C[C@@H](C(=O)N2CCOCC2)N(CC)C(=O)[C@H](C2CCCC2)N(C)C(=O)C2(CCCC2)NC(=O)[C@@H]2CCCN2C(=O)[C@H](CCc2ccc(C(F)(F)F)c(Cl)c2)NC(=O)CN(C)C(=O)[C@@H]1Cc1ccc(C(F)(F)F)cc1 [PP1970] ([NMeL]IG[Sar][NPrPhe(4-CF3)][Sar][hPhe(3-Cl-4-CF3)]P[Ac5c][NMeGly(cPent)][NEtAsp]-Morpholide; lactam N-11)					B (a compound having 3 or more and less than 10 is denoted as B)	B (a compound having 3 or more and less than 10 is denoted as B)
6	CCCN(C)C(=O)[C@@H]1CC(=O)N(C)[C@@H](COC)C(=O)N[C@@H]([C@@H](C)CC)C(=O)N(C)CC(=O)N(C)[C@H]2C/C=C\CCN(C2=O)[C@@H](Cc2ccc(C(F)(F)F)cc2)C(=O)N(C)CC(=O)N[C@@H](CCc2cc(F)c(C(F)(F)F)c(F)c2)C(=O)N2C[C@H](OCC)C[C@H]2C(=O)NC2(CC(C)(C)C2)C(=O)N(C)[C@@H](C2CCCC2)C(=O)N1C [PP1672]	A (a compound having 10 or more and less than 20 is denoted as A)	A (a compound having 10 or more and less than 20 is denoted as A)				
